Laboratory results as given in patent US11331290B2, “Niclosamide for the treatment of cancer metastasis” (Max-Delbrück-Centrum für Molekulare Medizin in der …, priority 2011, dated 2022).

Test system: HCT116-vector cells and HCT116-S100A4 cells
Assay: Anchorage-dependent cell proliferation (MTT)
Assay type: cell-based, human
Conditions: 1 μM daily
Protocol: For cell proliferation determination of HCT116, SW620, LS174T, SW480 and DLD-1 cells 2×10^3 cells were seeded in 96-well-plates (for each day one plate) and were given 24 hours to attach to the bottom of the well. Cells were from then on treated daily with 1 μM niclosamide or the respective amount of DMSO. For determination of viable cells 3-(4,5-dimethyl-2-thiazol)-2,5-diphenyl-2H-tetrazolium bromide (MTT; Sigma) was added to a final concentration of 0.5 mg per mL and incubated for 3 hours at 37° C. and 5% CO2 in a humidified incubator. […] Crystallized MTT was resolved by 10% SDS in 10 mM HCl and the absorption was measured at 560 nm. […] The average MTT metabolisation was determined of two independent experiments each performed in triplicate.
(A) Cell migration of HCT116-vector and HCT116-S100A4 cells exposed to niclosamide treatment. Cells were treated with 1 μM niclosamide for 24 hours and migration rates were measured with Boyden chamber assay. […] Cells were treated with 1 μM niclosamide for 24 hours and cell invasion was determined by Boyden chamber assay. (C) Directed migration of HCT116-vector and HCT116-S100A4 cells exposed to niclosamide treatment analyzed by wound healing assay. […] Cells were treated daily with 1 μM niclosamide and cell viability was determined with MTT assay. […] (F) Quantification of colonies formed. […]

Structure (SMILES): O=C(Nc1ccc([N+](=O)[O-])cc1Cl)c1cc(Cl)ccc1O [niclosamide, 2′,5-dichloro-4′-nitrosalicylanilide]
- anchorage-dependent cell proliferation: reduction of cell proliferation in both cell lines
